Measured values: ChEMBL document CHEMBL5096166, “Discovery of an Orally Efficacious Positive Allosteric Modulator of the Glucagon-like Peptide-1 Receptor” (J Med Chem, 2021)
Values belong to the compound of their own block, whether it stands above or below them. Activity calls are given as the source filed them. No cut-off for these calls is given here.

Tests used:
Mus musculus [1] = assay: (§1) Anti-hyperglycemic activity in overnight-fasted GIPR KO C57BL/6 mouse assessed as reduction in blood glucose AUC at 10 mg/kg, po pretreated with compound for 30 mins followed by dextrose addition measured every 15 mins for 60 mins by oral glucose tolerance test relative to control; assay type: functional; set-up: scale not given: the % may be the effect or the level left; details: time 90 min, 1.5 h
[2] = molecular target: T1, Glucagon-like peptide 1 receptor (Homo sapiens, UniProt P43220); assay: Positive allosteric modulator activity at human GLP-1R expressed in HEK293 cells assessed as fold increase in potentiation of GLP-1(9-36) induced cAMP accumulation in presence of IBMX relative to GLP-1(9-36); assay type: functional, cell-based
T1 sequence (P43220 whole entry): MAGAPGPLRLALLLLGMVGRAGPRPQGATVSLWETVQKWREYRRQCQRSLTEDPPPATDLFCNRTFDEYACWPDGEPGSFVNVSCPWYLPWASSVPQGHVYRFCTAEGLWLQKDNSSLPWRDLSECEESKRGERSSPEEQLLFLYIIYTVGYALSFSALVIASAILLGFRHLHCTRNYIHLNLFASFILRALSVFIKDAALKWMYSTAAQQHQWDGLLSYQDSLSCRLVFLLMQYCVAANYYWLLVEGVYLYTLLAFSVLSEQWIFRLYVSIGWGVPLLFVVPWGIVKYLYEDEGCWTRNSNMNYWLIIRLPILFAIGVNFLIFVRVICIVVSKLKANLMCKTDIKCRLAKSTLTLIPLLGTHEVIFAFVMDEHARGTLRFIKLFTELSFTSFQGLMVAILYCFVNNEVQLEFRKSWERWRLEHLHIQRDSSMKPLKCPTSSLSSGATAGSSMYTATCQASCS

[3] = molecular target: T1, Glucagon-like peptide 1 receptor; assay: Positive allosteric modulator activity at human GLP-1R expressed in HEK293 cells assessed as potentiation of GLP-1(9-36) induced cAMP accumulation by measuring maximal efficacy in presence of IBMX relative to GLP-1(9-36); assay type: functional, cell-based; details: filed as positive allosteric modulator
[4] = molecular target: T1, Glucagon-like peptide 1 receptor; assay: Positive allosteric modulator activity at human GLP-1R expressed in HEK293 cells assessed as potentiation of EC20 GLP-1(9-36) induced cAMP accumulation in presence of IBMX relative to GLP-1(9-36); assay type: functional, cell-based
[5] = molecular target: T1, Glucagon-like peptide 1 receptor; assay: Positive allosteric modulator activity at human GLP-1R expressed in HEK293 cells assessed as potentiation of EC20 GLP-1(9-36) induced cAMP accumulation by measuring maximal efficacy in presence of IBMX relative to GLP-1(9-36); assay type: functional, cell-based; details: filed as positive allosteric modulator
[6] = Clearance in CD1 mouse at 1 mg/kg, iv measured upto 8 hrs by LC-MS/MS analysis; assay type: ADME, organism-based; details: in vivo
[7] = AUC in CD1 mouse at 1 mg/kg, iv measured upto 8 hrs by LC-MS/MS analysis; assay type: ADME, organism-based; set-up: time < 8 hrs, dose 1 mg/kg, route iv; details: in vivo
[8] = Cmax in CD1 mouse at 1 mg/kg, iv measured upto 8 hrs by LC-MS/MS analysis; assay type: ADME, organism-based; set-up: time < 8 hrs, dose 1 mg/kg, route iv; details: in vivo
[9] = Half life in CD1 mouse at 1 mg/kg, iv measured upto 8 hrs by LC-MS/MS analysis; assay type: ADME, organism-based; details: in vivo
[10] = Volume of distribution at steady state in CD1 mouse at 1 mg/kg, iv measured upto 8 hrs by LC-MS/MS analysis; assay type: ADME, organism-based; details: in vivo, read-out: Vdss
[11] = AUC in CD1 mouse at 3 mg/kg, po measured upto 16 hrs by LC-MS/MS analysis; assay type: ADME, organism-based; set-up: dose 3 mg/kg, time < 16 hrs, route po; details: in vivo
[12] = Cmax in CD1 mouse at 3 mg/kg, po measured upto 16 hrs by LC-MS/MS analysis; assay type: ADME, organism-based; set-up: dose 3 mg/kg, time < 16 hrs, route po; details: in vivo
[13] = Half life in CD1 mouse at 3 mg/kg, po measured upto 16 hrs by LC-MS/MS analysis; assay type: ADME, organism-based; details: in vivo
[14] = Tmax in CD1 mouse at 3 mg/kg, po measured upto 16 hrs by LC-MS/MS analysis; assay type: ADME, organism-based; details: in vivo
[15] = Oral bioavailability in CD1 mouse at 3 mg/kg measured upto 16 hrs by LC-MS/MS analysis; assay type: ADME, organism-based; details: in vivo
[16] = AUC in Sprague-Dawley rat at 1 mg/kg, iv measured upto 8 hrs by LC-MS/MS analysis; assay type: ADME, organism-based; set-up: time < 8 hrs, dose 1 mg/kg, route iv; details: in vivo
[17] = Cmax in Sprague-Dawley rat at 1 mg/kg, iv measured upto 8 hrs by LC-MS/MS analysis; assay type: ADME, organism-based; set-up: dose 1 mg/kg, time < 8 hrs, route iv; details: in vivo
[18] = Half life in Sprague-Dawley rat at 1 mg/kg, iv measured upto 8 hrs by LC-MS/MS analysis; assay type: ADME, organism-based; details: in vivo
[19] = Volume of distribution at steady state in Sprague-Dawley rat at 1 mg/kg, iv measured upto 8 hrs by LC-MS/MS analysis; assay type: ADME, organism-based; details: in vivo, read-out: Vdss
[20] = Clearance in Sprague-Dawley rat at 1 mg/kg, iv measured upto 8 hrs by LC-MS/MS analysis; assay type: ADME, organism-based; details: in vivo
[21] = AUC in Sprague-Dawley rat at 3 mg/kg, po measured upto 16 hrs by LC-MS/MS analysis; assay type: ADME, organism-based; set-up: dose 3 mg/kg, time < 16 hrs, route po; details: in vivo
[22] = Cmax in Sprague-Dawley rat at 3 mg/kg, po measured upto 16 hrs by LC-MS/MS analysis; assay type: ADME, organism-based; set-up: time < 16 hrs, dose 3 mg/kg, route po; details: in vivo
[23] = Half life in Sprague-Dawley rat at 3 mg/kg, po measured upto 16 hrs by LC-MS/MS analysis; assay type: ADME, organism-based; details: in vivo
[24] = Tmax in Sprague-Dawley rat at 3 mg/kg, po measured upto 16 hrs by LC-MS/MS analysis; assay type: ADME, organism-based; details: in vivo
[25] = Oral bioavailability in Sprague-Dawley rat at 3 mg/kg measured upto 16 hrs by LC-MS/MS analysis; assay type: ADME, organism-based; details: in vivo
[26] = AUC in Beagle dog at 1 mg/kg, iv measured upto 8 hrs by LC-MS/MS analysis; assay type: ADME, organism-based, Canis lupus familiaris; set-up: time < 8 hrs, dose 1 mg/kg, route iv; details: in vivo
[27] = Cmax in Beagle dog at 1 mg/kg, iv measured upto 8 hrs by LC-MS/MS analysis; assay type: ADME, organism-based, Canis lupus familiaris; set-up: time < 8 hrs, dose 1 mg/kg, route iv; details: in vivo
[28] = Half life in Beagle dog at 1 mg/kg, iv measured upto 8 hrs by LC-MS/MS analysis; assay type: ADME, organism-based, Canis lupus familiaris; details: in vivo
[29] = Volume of distribution at steady state in Beagle dog at 1 mg/kg, iv measured upto 8 hrs by LC-MS/MS analysis; assay type: ADME, organism-based, Canis lupus familiaris; details: in vivo, read-out: Vdss
[30] = Clearance in Beagle dog at 1 mg/kg, iv measured upto 8 hrs by LC-MS/MS analysis; assay type: ADME, organism-based, Canis lupus familiaris; details: in vivo
[31] = molecular target: T1, Glucagon-like peptide 1 receptor; assay: Agonist activity at human GLP-1R expressed in HEK293 cells assessed as potentiation of GLP-1(7-36) induced cAMP accumulation; assay type: functional, cell-based
[32] = molecular target: T1, Glucagon-like peptide 1 receptor; assay: Partial agonist activity at human GLP-1R expressed in HEK293 cells assessed as potentiation of GLP-1(9-36) induced cAMP accumulation in presence of IBMX; assay type: functional, cell-based
[33] = molecular target: T1, Glucagon-like peptide 1 receptor; assay: Partial agonist activity at human GLP-1R expressed in HEK293 cells assessed as potentiation of GLP-1(9-36) induced cAMP accumulation by measuring maximal efficacy in presence of IBMX relative to GLP-1(9-36); assay type: functional, cell-based
[34] = molecular target: T1, Glucagon-like peptide 1 receptor; assay: Agonist activity at human GLP-1R expressed in HEK293 cells assessed as potentiation of GLP-1(9-36) induced cAMP accumulation by measuring maximal efficacy at 0.12 uM in presence of IBMX relative to GLP-1(9-36); assay type: functional, cell-based; details: filed as agonist
[35] = molecular target: T1, Glucagon-like peptide 1 receptor; assay: Agonist activity at human GLP-1R expressed in HEK293 cells assessed as potentiation of GLP-1(9-36) induced cAMP accumulation in presence of IBMX; assay type: functional, cell-based
[36] = molecular target: T1, Glucagon-like peptide 1 receptor; assay: Agonist activity at human GLP-1R expressed in CHO-K1 cells assessed as fold increase in potentiation of EC50 GLP-1(7-36) induced beta-arrestin recruitment; assay type: functional, cell-based
[37] = molecular target: T1, Glucagon-like peptide 1 receptor; assay: Agonist activity at human GLP-1R expressed in CHO-K1 cells assessed as potentiation of GLP-1(9-36) induced beta-arrestin recruitment by measuring maximal efficacy relative to GLP-1(9-36); assay type: functional, cell-based
[38] = molecular target: T1, Glucagon-like peptide 1 receptor; assay: Agonist activity at human GLP-1R expressed in CHO-K1 cells assessed as potentiation of GLP-1(9-36) induced beta-arrestin recruitment; assay type: functional, cell-based
[39] = molecular target: T1, Glucagon-like peptide 1 receptor; assay: Positive allosteric modulator activity at human GLP-1R transfected in rat INS-1 832/13 cells assessed as fold increase in potentiation of GLP-1(7-36) induced cAMP accumulation at 0.1 uM; assay type: functional, cell-based
[40] = molecular target: T1, Glucagon-like peptide 1 receptor; assay: Positive allosteric modulator activity at human GLP-1R transfected in rat INS-1 832/13 cells assessed as potentiation of GLP-1(9-36) induced cAMP accumulation; assay type: functional, cell-based
[41] = molecular target: T1, Glucagon-like peptide 1 receptor; assay: Positive allosteric modulator activity at human GLP-1R transfected in rat INS-1 832/13 cells assessed as potentiation of GLP-1(9-36) induced cAMP accumulation by measuring maximal efficacy at 3 uM relative to GLP-1(9-36); assay type: functional, cell-based; details: filed as positive allosteric modulator
[42] = molecular target: T1, Glucagon-like peptide 1 receptor; assay: Positive allosteric modulator activity at human GLP-1R transfected in rat INS-1 832/13 cells assessed as increase in GLP-1(9-36) induced insulin levels at 3 uM in presence of high glucose; assay type: cell-based; details: filed as positive allosteric modulator
Mus musculus [43] = assay: (§2) Anti-hyperglycemic activity in overnight-fasted GIPR KO C57BL/6 mouse assessed as reduction in blood glucose AUC at 30 mg/kg, po pretreated with compound for 30 mins followed by dextrose addition measured every 15 mins for 60 mins by oral glucose tolerance test relative to control; assay type: functional; set-up: scale not given: the % may be the effect or the level left; details: time 90 min, 1.5 h
Mus musculus [44] = assay: as §1, with “60 mins in presence of sitagliptin by oral” for “60 mins by oral”; assay type: functional; set-up: scale not given: the % may be the effect or the level left; details: time 90 min, 1.5 h
Mus musculus [45] = assay: as §2, with “60 mins in presence of sitagliptin by oral” for “60 mins by oral”; assay type: functional; set-up: scale not given: the % may be the effect or the level left; details: time 90 min, 1.5 h

SMILES: N[C@@H](CC(=O)N1CCn2c(nnc2C(F)(F)F)C1)Cc1cc(F)c(F)cc1F [SITAGLIPTIN]
Activity (Mus musculus [1]): 18%

SMILES: C[C@H](c1c(Cl)ccc(C2CC2)c1Cl)n1cnc2cnc(Br)cc21
fold change (FC) [2]: 300
Emax [3]: 110%
EC50 [4]: 1800 nM
Emax [5]: 113%

SMILES: COc1ccc(Cl)c([C@@H](C)n2cnc3ccc(-c4ccccc4[C@H]4CCCCN4)cc32)c1Cl
fold change (FC) [2]: 15000
Emax [3]: 88%
EC50 [4]: 24 nM
Emax [5]: 120%

SMILES: COc1ccc(Cl)c([C@@H](C)n2cnc3ccc(Br)cc32)c1Cl
fold change (FC) [2]: 250
Emax [3]: 115%
EC50 [4]: 800 nM
Emax [5]: 102%

More lines, main results first:

fold change (FC) [2]: 7300
Emax [3]: 103%
EC50 [4]: 14 nM
Emax [5]: 104%
SMILES: CC(C(=O)O)c1ccccc1-c1cc2c(cn1)ncn2[C@H](C)c1c(Cl)ccc(C2CC2)c1Cl (some centres not stated)

clearance [6]: 9 mL/min/kg
fold change (FC) [2]: 830
Emax [3]: 102%
EC50 [4]: 270 nM
Emax [5]: 98%
AUC at 8 h [7]: 3.64 µM·h
Cmax [8]: 1430 nM
half-life [9]: 2.1 h
Vd [10]: 1.6 L/kg
AUC at 16 h [11]: 7.3 µM·h
Cmax [12]: 2040 nM
half-life [13]: 1.6 h
Tmax [14]: 0.58 h
bioavailability [15]: 67%
AUC at 8 h [16]: 0.859 µM·h
Cmax [17]: 1420 nM
half-life [18]: 0.6 h
Vd [19]: 1.6 L/kg
clearance [20]: 41.9 mL/min/kg
AUC at 16 h [21]: 1.16 µM·h
Cmax [22]: 183 nM
half-life [23]: 2.9 h
Tmax [24]: 1.8 h
bioavailability [25]: 45%
AUC at 8 h [26]: 1.88 µM·h
Cmax [27]: 6870 nM
half-life [28]: 0.6 h
Vd [29]: 0.3 L/kg
clearance [30]: 18.5 mL/min/kg
EC50 [31]: 0.085 nM
EC50 [32]: 1800 nM
Emax [33]: 13%
Emax [34]: 92%
EC50 [35]: 7 nM
fold change (FC) [36]: 1.9
Emax [37]: 10%
EC50 [38]: 12 nM
fold change (FC) [39]: 2.7
EC50 [40]: 7 nM
Emax [41]: 87%
Activity [42]: Active
SMILES: C[C@H](c1c(Cl)ccc(C2CC2)c1Cl)n1cnc2cnc(-c3ccccc3[C@@H](C)C(=O)O)cc21
Activity (Mus musculus [1]): 9%
Activity (Mus musculus [43]): 40%
Activity (Mus musculus [44]): 29%
Activity (Mus musculus [45]): 65%
